Data taken from the OligoGym collection.
HELM strings list units from the 5' end as sugar, base in round brackets, then linkage (d deoxyribose, r ribose, m 2'-O-methyl, p phosphodiester). Strings are as the collection lists them; they lack the last nucleoside at the 3' end of the tested compound. [moe] = 2'-O-(2-methoxyethyl) (MOE); [sp] = phosphorothioate linkage; [m5C] = 5-methylcytosine

These substances were tested against GFAP (assay: mouse, dose not given). Conditions: ASO.

“RNA1{[moe](G)[sp].[moe](G)p.[moe]([m5C])p.[moe](A)p.[moe](A)[sp].d([m5C])[sp].d(A)[sp].d(G)[sp].d(T)[sp].d(T)[sp].d(T)[sp].d([m5C])[sp].d([m5C])[sp].d(A)[sp].d(T)[sp].[moe](A)p.[moe](A)p.[moe]([m5C])[sp].[moe](A)}$$$$ (last 3' nucleoside missing)” was tested. Which 3 h FOB score did it give?
Its 3 h FOB score is 0 score 0-7.

With “RNA1{[moe](G)[sp].[moe](G)p.[moe]([m5C])p.[moe](A)p.[moe](G)[sp].d(T)[sp].d(A)[sp].d(T)[sp].d(T)[sp].d(A)[sp].d([m5C])[sp].d([m5C])[sp].d(T)[sp].[moe]([m5C])p.[moe](T)p.[moe](A)[sp].[moe]([m5C])}$$$$ (last 3' nucleoside missing)” as the substance, how does the 3 h FOB score read?
Its 3 h FOB score is 0 score 0-7.

Which 3 h FOB score does the source give for “RNA1{[moe](G)[sp].[moe](G)p.[moe]([m5C])p.[moe](A)p.[moe](G)[sp].d(T)[sp].d(A)[sp].d(T)[sp].d(T)[sp].d(A)[sp].d([m5C])[sp].d([m5C])[sp].d(T)[sp].d([m5C])[sp].d(T)[sp].[moe](A)p.[moe]([m5C])p.[moe](T)[sp].[moe](A)}$$$$ (last 3' nucleoside missing)” here?
The 3 h FOB score was 3 score 0-7.

Which 3 h FOB score does the source give for “RNA1{[moe](G)[sp].[moe](G)p.[moe]([m5C])p.[moe](A)p.[moe](G)p.[moe](T)p.d(A)[sp].d(T)[sp].d(T)[sp].d(A)[sp].d([m5C])[sp].d([m5C])[sp].d(T)[sp].d([m5C])[sp].d(T)[sp].d(A)[sp].[moe]([m5C])p.[moe](T)[sp].[moe](A)}$$$$ (last 3' nucleoside missing)” here?
The 3 h FOB score was 3 score 0-7.

Which 3 h FOB score does the source give for “RNA1{[moe](G)[sp].[moe](G)p.[moe]([m5C])p.[moe](A)p.[moe](G)p.d(T)[sp].d(A)[sp].d(T)[sp].d(T)[sp].d(A)[sp].d([m5C])[sp].d([m5C])[sp].d(T)[sp].d([m5C])[sp].d(T)[sp].[moe](A)p.[moe]([m5C])p.[moe](T)[sp].[moe](A)}$$$$ (last 3' nucleoside missing)” here?
The 3 h FOB score was 3 score 0-7.

With “RNA1{[moe](G)[sp].[moe](G)p.[moe]([m5C])p.[moe](A)p.[moe]([m5C])[sp].d(A)[sp].d(G)[sp].d(T)[sp].d(T)[sp].d([m5C])[sp].d([m5C])[sp].d([m5C])[sp].d(A)[sp].d(G)[sp].d(A)[sp].[moe](T)p.[moe](A)p.[moe]([m5C])[sp].[moe](T)}$$$$ (last 3' nucleoside missing)” as the substance, how does the 3 h FOB score read?
Its 3 h FOB score is 5 score 0-7.

With “RNA1{[moe](G)[sp].[moe](G)p.[moe]([m5C])p.[moe](A)p.[moe]([m5C])p.[moe](A)p.d(G)[sp].d(T)[sp].d(T)[sp].d([m5C])[sp].d([m5C])[sp].d([m5C])[sp].d(A)[sp].d(G)[sp].d(A)[sp].d(T)[sp].[moe](A)p.[moe]([m5C])[sp].[moe](T)}$$$$ (last 3' nucleoside missing)” as the substance, how does the 3 h FOB score read?
The 3 h FOB score was 1 score 0-7.

How did the 3 h FOB score turn out when “RNA1{[moe](G)[sp].[moe](G)p.[moe]([m5C])p.[moe](A)p.d(G)[sp].d(T)[sp].d(A)[sp].d(T)[sp].d(T)[sp].d(A)[sp].d([m5C])[sp].d([m5C])[sp].d(T)[sp].d([m5C])[sp].[moe](T)p.[moe](A)p.[moe]([m5C])p.[moe](T)[sp].[moe](A)}$$$$ (last 3' nucleoside missing)” was run?
Its 3 h FOB score is 3 score 0-7.

How did the 3 h FOB score turn out when “RNA1{[moe](G)[sp].[moe](G)p.[moe]([m5C])p.[moe](A)p.d([m5C])[sp].d(A)[sp].d(G)[sp].d(T)[sp].d(T)[sp].d([m5C])[sp].d([m5C])[sp].d([m5C])[sp].d(A)[sp].d(G)[sp].[moe](A)p.[moe](T)p.[moe](A)p.[moe]([m5C])[sp].[moe](T)}$$$$ (last 3' nucleoside missing)” was run?
Its 3 h FOB score is 1 score 0-7.

How did the 3 h FOB score turn out when “RNA1{[moe](G)[sp].[moe](G)p.[moe]([m5C])p.[moe](G)p.[moe](A)[sp].d(G)[sp].d([m5C])[sp].d(G)[sp].d(G)[sp].d(A)[sp].d(G)[sp].d(G)[sp].d([m5C])[sp].d([m5C])[sp].d(T)[sp].[moe](G)p.[moe](G)p.[moe](G)[sp].[moe](T)}$$$$ (last 3' nucleoside missing)” was run?
Its 3 h FOB score is 7 score 0-7.

How did the 3 h FOB score turn out when “RNA1{[moe](G)[sp].[moe](G)p.[moe]([m5C])p.[moe](T)p.[moe](T)[sp].d(T)[sp].d(T)[sp].d(G)[sp].d(A)[sp].d(G)[sp].d(A)[sp].d(T)[sp].d(A)[sp].d(T)[sp].d([m5C])[sp].[moe](T)p.[moe](T)p.[moe](G)[sp].[moe](T)}$$$$ (last 3' nucleoside missing)” was run?
Its 3 h FOB score is 5 score 0-7.

For “RNA1{[moe](G)[sp].[moe](G)p.[moe]([m5C])p.[moe](T)p.[moe](T)[sp].d([m5C])[sp].d(A)[sp].d(T)[sp].d([m5C])[sp].d(T)[sp].d(G)[sp].d([m5C])[sp].d(T)[sp].d(T)[sp].d([m5C])[sp].[moe]([m5C])p.[moe](T)p.[moe](G)[sp].[moe](G)}$$$$ (last 3' nucleoside missing)”, which 3 h FOB score is on record?
Its 3 h FOB score is 1 score 0-7.

How did the 3 h FOB score turn out when “RNA1{[moe](G)[sp].[moe](G)p.[moe]([m5C])p.[moe](T)p.[moe]([m5C])[sp].d(T)[sp].d([m5C])[sp].d(T)[sp].d([m5C])[sp].d(A)[sp].d(T)[sp].d([m5C])[sp].d(T)[sp].d(G)[sp].d(T)[sp].[moe]([m5C])p.[moe](A)p.[moe](A)[sp].[moe](A)}$$$$ (last 3' nucleoside missing)” was run?
Its 3 h FOB score is 4 score 0-7.

With “RNA1{[moe](G)[sp].[moe](G)p.[moe]([m5C])p.[moe]([m5C])p.[moe](T)[sp].d(A)[sp].d([m5C])[sp].d(T)[sp].d(T)[sp].d([m5C])[sp].d(T)[sp].d([m5C])[sp].d(T)[sp].d(A)[sp].d(G)[sp].[moe](G)p.[moe](T)p.[moe](G)[sp].[moe](G)}$$$$ (last 3' nucleoside missing)” as the substance, how does the 3 h FOB score read?
Its 3 h FOB score is 1 score 0-7.

How did the 3 h FOB score turn out when “RNA1{[moe](G)[sp].[moe](T)p.[moe](A)p.[moe](G)p.[moe](T)[sp].d(T)[sp].d(T)[sp].d([m5C])[sp].d([m5C])[sp].d(T)[sp].d(T)[sp].d(T)[sp].d(T)[sp].d(A)[sp].d([m5C])[sp].[moe]([m5C])p.[moe](A)p.[moe](A)[sp].[moe](G)}$$$$ (last 3' nucleoside missing)” was run?
Its 3 h FOB score is 1 score 0-7.

With “RNA1{[moe](G)[sp].[moe](T)p.[moe](A)p.[moe](T)p.[moe](T)[sp].d(A)[sp].d(G)[sp].d(G)[sp].d(A)[sp].d(T)[sp].d([m5C])[sp].d([m5C])[sp].d([m5C])[sp].[moe](A)p.[moe](T)p.[moe]([m5C])[sp].[moe](T)}$$$$ (last 3' nucleoside missing)” as the substance, how does the 3 h FOB score read?
The 3 h FOB score was 2 score 0-7.

“RNA1{[moe](G)[sp].[moe](T)p.[moe](A)p.[moe]([m5C])p.[moe]([m5C])[sp].d([m5C])[sp].d(T)[sp].d(G)[sp].d(G)[sp].d(T)[sp].d(A)[sp].d(T)[sp].d(G)[sp].d(A)[sp].d(T)[sp].[moe](A)p.[moe](G)p.[moe](G)[sp].[moe]([m5C])}$$$$ (last 3' nucleoside missing)” was tested. Which 3 h FOB score did it give?
Its 3 h FOB score is 6 score 0-7.

With “RNA1{[moe](G)[sp].[moe](T)p.[moe](G)p.[moe](A)p.[moe](G)[sp].d(G)[sp].d([m5C])[sp].d(T)[sp].d(T)[sp].d(T)[sp].d(T)[sp].d(G)[sp].d(A)[sp].d(G)[sp].d(A)[sp].[moe](T)p.[moe](A)p.[moe](T)[sp].[moe]([m5C])}$$$$ (last 3' nucleoside missing)” as the substance, how does the 3 h FOB score read?
The 3 h FOB score was 5 score 0-7.

Which 3 h FOB score does the source give for “RNA1{[moe](G)[sp].[moe](T)p.[moe](G)p.[moe](A)p.[moe](G)[sp].d(T)[sp].d(T)[sp].d(T)[sp].d([m5C])[sp].d(T)[sp].d(T)[sp].d(G)[sp].d(T)[sp].d(T)[sp].d(A)[sp].[moe](G)p.[moe](T)p.[moe](T)[sp].[moe](G)}$$$$ (last 3' nucleoside missing)” here?
Its 3 h FOB score is 7 score 0-7.
